13 compounds from patent US9724352B2, “Pyrrolo[2,1-F[1,2,4]triazine compounds, preparation methods and applications thereof” (Shanghai Institute of Materia Medica, Chinese Academy of …, priority 2012, dated 2017) can be followed below.

Experiment [1] relates to human rhabdomyosarcoma Rh30 cells. Nature of the experiment: Proliferation of Rh30 cells (sulforhodamine B). The class given is cell-based. The conditions noted are these: for IC50: Homo sapiens, Rh30, 72 h, read-out: IC50 against proliferation of Rh30 cells; for inhibitory activity on Rh30 cell proliferation (in words): 72 h. The procedure:
Rh30 cells were seeded in a 96-well plate at 3000 cells/well. After the cells adhered, tested compounds at concentration of 10, 3, 1, 0.3, or 0.1 μM were added, and incubated for 72 h. The culture media were discarded and cells were fixed with trichloroacetic acid. After washed with distilled water for five times and dried, sulfonylrhodamine B was added. After washed with 1% glacial acetic acid for five times and dried, trihydroxymethylaminomethane buffer was added. OD value was measured by using a microplate reader at a wavelength of 560 nm.

In experiment [2] the test system is human neuroglioma U87-MG xenograft. Nature of the experiment: Growth of U87-MG xenograft subcutaneously transplanted in nude mouse. The format is in vivo. The following applies: for growth of subcutaneously transplanted U87MG xenograft (in words): p.o. once a day for three weeks. As to the method:
Well-developed tumors in nude mice were cut into 1.5 mm3 fragments and transplanted s.c. into the right flank of nude mice under sterile conditions. The diameters of subcutaneously transplanted tumours in nude mice were measured with a vernier calipe. […] Control groups were given the same amount of blank solvent, and treatment groups received tested compounds (p.o.). Compounds were administrated once a day for three weeks. Throughout the experiment, the sizes of the tumours were measured twice per week and meanwile the body weights of mice were weighed. The tumour volume (TV) was calculated as follows: TV=½×a×b2, wherein a and b represent the length and width, respectively. The individual relative tumour volume (RTV) was calculated as follows: RTV=Vt/V0, where V0 is the volume at the beginning of the treatment and Vt is the volume measured every time. Evaluation index of antitumor activity was relative tumor proliferation rate T/C (%), the calculation formula of which was as follows: T/C (%)=(TRTV/CRTV)×100%, TRTV:RTV of treatment group; CRTV:RTV of negative control group.

With `CN(C)Cc1cc2c(N3CCOCC3)nc(-c3ccc(NC(=O)Nc4ccc(F)cc4)cc3)nn2c1` [Compound I-4, 1-[4-(6-dimethylaminomethyl-4-morpholinopyrrolo[2,1-f][1,2,4]triazin-2-yl)phenyl]-3-(p-fluorophenyl)urea], in experiment [1], the IC50 is 400 nM.
On the same count and under the same terms, the figure for `CN(C)Cc1cc2c(N3CCOCC3)nc(-c3ccc(NC(=O)Nc4ccc(Cl)cc4)cc3)nn2c1` [Compound I-5, 1-[4-(6-dimethylaminomethyl-4-morpholinopyrrolo[2,1-f][1,2,4]triazin-2-yl)phenyl]-3-(p-chlorophenyl)urea] is 1240 nM; for `CN(C)Cc1cc2c(N3CCOCC3)nc(-c3ccc(NC(=O)Nc4cccc(Cl)c4)cc3)nn2c1` [Compound I-6, 1-(3-chlorophenyl)-3-(4-(6-((dimethylamino)methyl)-4-morpholinopyrrolo[2,1-f][1,2,4]triazin-2-yl)phenyl)urea] it is 1360 nM; for `Cc1ccc(NC(=O)Nc2ccc(-c3nc(N4CCOCC4)c4cc(CN(C)C)cn4n3)cc2)cc1` [Compound I-9, 1-(4-(6-((dimethylamino)methyl)-4-morpholinopyrrolo[2,1-f][1,2,4]triazin-2-yl)phenyl)-3-(p-tolyl)urea] it is 990 nM.
Consider `CN(C)Cc1cc2c(N3CCOCC3)nc(-c3ccc(NC(=O)Nc4ccc(C(=O)N(C)C)cc4)cc3)nn2c1` [Compound I-14, 4-(3-(4-(6-((dimethylamino)methyl)-4-morpholinopyrrolo[2,1-f][1,2,4]triazin-2-yl)phenyl)ureido)-N,N-dimethylbenzamide], for which, in experiment [1], the IC50 is 500 nM.
Consider `CN(C)Cc1cc2c(N3CCOCC3)nc(-c3cccc(CO)c3)nn2c1` [Compound I-24, (3-(6-((dimethylamino)methyl)-4-morpholinopyrrolo[2,1-f][1,2,4]triazin-2-yl)phenyl)methanol], for which, in experiment [1], the “inhibitory activity on Rh30 cell proliferation (in words)” value is “tens of nanomolar” and the IC50 was found to be 74 nM.
The like results for `CN(C)Cc1cc2c(N3CCOCC3)nc(-c3cccc(CS(C)(=O)=O)c3)nn2c1` [Compound I-25, N,N-dimethyl-1-(2-(3-((methylsulfonyl)methyl)phenyl)-4-morpholinopyrrolo[2,1-f][1,2,4]triazin-6-yl)methanamine] were, in that order, “tens of nanomolar” and 39 nM.
For the compound `CN(C)Cc1cc2c(N3CCOCC3)nc(-c3cccc(CNS(C)(=O)=O)c3)nn2c1` [Compound I-26, N-(3-(6-((dimethylamino)methyl)-4-morpholinopyrrolo[2,1-f][1,2,4]triazin-2-yl)benzyl)methanesulfonamide], in experiment [1], the IC50 came out at 240 nM.
On the same count and under the same terms, the figure for `CS(=O)(=O)N1CCN(Cc2cc3c(N4CC5CCC(C4)O5)nc(-c4cnc(N)cc4C(F)(F)F)nn3c2)CC1` [Compound I-29, 5-(4-(8-oxa-3-azabicyclo[3.2.1]octan-3-yl)-6-((4-(methylsulfonyl)piperazin-1-yl)methyl)pyrrolo[2,1-f][1,2,4]triazin-2-yl)-4-(trifluoromethyl)pyridin-2-amine] is 3420 nM; for `CS(=O)(=O)N1CCN(Cc2cc3c(N4CCOCC4)nc(-c4cnc(NC(=O)Oc5ccccc5)cc4C(F)(F)F)nn3c2)CC1` [Compound I-31, Phenyl (5-(6-((4-(methylsulfonyl)piperazin-1-yl)methyl)-4-morpholinopyrrolo[2,1-f][1,2,4]triazin-2-yl)-4-(trifluoromethyl)pyridin-2-yl)carbamate] it is 5060 nM.
The same measure, in the same setting: to `C[C@H]1COCCN1c1nc(-c2cnc(N)cc2C(F)(F)F)nn2cc(CN3CCN(S(C)(=O)=O)CC3)cc12` [Compound I-34, (S)-5-(4-(3-methylmorpholino)-6-((4-(methylsulfonyl)piperazin-1-yl)methyl)pyrrolo[2,1-f][1,2,4]triazin-2-yl)-4-(trifluoromethyl)pyridin-2-amine] belongs 530 nM.
With `CCNC(=O)Nc1cc(C(F)(F)F)c(-c2nc(N3CCOCC3)c3cc(CN4CCN(S(C)(=O)=O)CC4)cn3n2)cn1.CS(=O)(=O)O` [I-30 (mesylate), 1-Ethyl-3-(5-(6-((4-(methylsulfonyl)piperazin-1-yl)methyl)-4-morpholinopyrrolo[2,1-f] [1,2,4]triazin-2-yl)-4-(trifluoromethyl)pyridin-2-yl)urea mesylate], the “Relative tumor proliferation rate T/C” value in experiment [2] (50 mg/kg p.o. once a day, d0) amounted to 100.00%; in experiment [2] (50 mg/kg p.o. once a day, d3), 67.89%; in experiment [2] (50 mg/kg p.o. once a day, d7), 54.35%; in experiment [2] (50 mg/kg p.o. once a day, d10), 60.45%; in experiment [2] (50 mg/kg p.o. once a day, d14), 42.46%; in experiment [2] (50 mg/kg p.o. once a day, d17), 41.64%. For the same compound, the “Relative tumor proliferation rate T/C” value in experiment [2] (50 mg/kg p.o. once a day, d21) worked out at 37.26%. Besides, the “growth of subcutaneously transplanted U87MG xenograft (in words)” value in experiment [2] was “significant inhibitory effects”.
For the compound `COC(=O)Nc1cc(C(F)(F)F)c(-c2nc(N3CCOCC3)c3cc(CN4CCN(S(C)(=O)=O)CC4)cn3n2)cn1.CS(=O)(=O)O` [I-33 (mesylate), Methyl (5-(6-((4-(methylsulfonyl)piperazin-1-yl)methyl)-4-morpholinopyrrolo[2,1-f][1,2,4]triazin-2-yl)-4-(trifluoromethyl)pyridin-2-yl)carbamate mesylate], the “Relative tumor proliferation rate T/C” value in experiment [2] (20 mg/kg p.o. once a day, d0) is recorded as 100.00%; in experiment [2] (20 mg/kg p.o. once a day, d3), 84.69%; in experiment [2] (20 mg/kg p.o. once a day, d7), 65.90%; in experiment [2] (20 mg/kg p.o. once a day, d10), 55.24%; in experiment [2] (20 mg/kg p.o. once a day, d14), 37.48%; in experiment [2] (20 mg/kg p.o. once a day, d17) it was 31.92%. Besides, the “Relative tumor proliferation rate T/C” value in experiment [2] (20 mg/kg p.o. once a day, d21) was 32.61%; in experiment [2] (50 mg/kg p.o. once a day, d0), 100.00%; in experiment [2] (50 mg/kg p.o. once a day, d3), 82.76%; in experiment [2] (50 mg/kg p.o. once a day, d7), 59.61%; in experiment [2] (50 mg/kg p.o. once a day, d10) it was 54.74%; in experiment [2] (50 mg/kg p.o. once a day, d14) it was 36.93%. Besides, the “Relative tumor proliferation rate T/C” value in experiment [2] (50 mg/kg p.o. once a day, d17) came to 29.89%; in experiment [2] (50 mg/kg p.o. once a day, d21), 25.65%. The “growth of subcutaneously transplanted U87MG xenograft (in words)” value in experiment [2] was “significantly inhibited the growth”.
